Reference: ChEMBL document CHEMBL1154088, “Synthesis, biological evaluation and docking studies of novel benzopyranone congeners for their expected activity as anti-inflammatory, analgesic and antipyretic agents” (Bioorg Med Chem, 2009)

Assays:
Mus musculus [1] = assay: Analgesic activity in mouse assessed as protection against acetic acid-induced writhing at one-tenth of LD50 administered subcutaneously 30 mins before acetic acid challenge measured after 4 hrs relative to control; type: functional
Rattus norvegicus [2] = assay: Antipyretic activity against yeast-induced hyperpyrexia in hyperthermic rat assessed as rectal temperature at one-tenth of LD50 administered subcutaneously 18 hrs after yeast challenge measured after 1 hr (Rvb=39.24 +/- 0.22 degC); type: functional
Rattus norvegicus [3] = assay: Antipyretic activity against yeast-induced hyperpyrexia in hyperthermic rat assessed as rectal temperature at one-tenth of LD50 administered subcutaneously 18 hrs after yeast challenge measured after 2 hrs (Rvb=39.11 +/- 0.26 degC); type: functional
Rattus norvegicus [4] = assay: Antipyretic activity against yeast-induced hyperpyrexia in hyperthermic rat assessed as rectal temperature at one-tenth of LD50 administered subcutaneously 18 hrs after yeast challenge measured after 3 hrs (Rvb=39.20 +/- 0.24 degC); type: functional
Rattus norvegicus [5] = assay: Antipyretic activity against yeast-induced hyperpyrexia in hyperthermic rat assessed as rectal temperature at one-tenth of LD50 administered subcutaneously 18 hrs after yeast challenge measured after 4 hrs (Rvb=39.17 +/- 0.20 degC); type: functional
[6] = Toxicity in sc dosed albino mouse up to 24 hrs; type: organism-based; settings: in vivo
Rattus norvegicus [7] = assay: Antiinflammatory activity against carrageenan-induced foot paw edema in rat assessed as reduction in paw size at one-tenth of LD50 administered subcutaneously 30 mins before carrageenan challenge measured after 3 hrs relative to control; type: functional; set-up: scale not given: the % may be the effect or the level left
Mus musculus [8] = assay: Analgesic activity in mouse assessed as protection against acetic acid-induced writhing at one-tenth of LD50 administered subcutaneously 30 mins before acetic acid challenge measured after 1 hr relative to control; type: functional
Mus musculus [9] = assay: Analgesic activity in mouse assessed as protection against acetic acid-induced writhing at one-tenth of LD50 administered subcutaneously 30 mins before acetic acid challenge measured after 2 hrs relative to control; type: functional
Mus musculus [10] = assay: Analgesic activity in mouse assessed as protection against acetic acid-induced writhing at one-tenth of LD50 administered subcutaneously 30 mins before acetic acid challenge measured after 3 hrs relative to control; type: functional

SMILES | Activity (Mus musculus [1]) [%] | Activity (Rattus norvegicus [2]) [°C] | Activity (Rattus norvegicus [3]) [°C] | Activity (Rattus norvegicus [4]) [°C] | Activity (Rattus norvegicus [5]) [°C] | LD50 at 24 h [6] [mg/kg] | Activity (Rattus norvegicus [7]) [%] | Activity (Mus musculus [8]) [%] | Activity (Mus musculus [9]) [%] | Activity (Mus musculus [10]) [%]
COc1ccc(C2CC(c3c(O)ccc4c(-c5ccccc5)cc(=O)oc34)=NN2)cc1 (stereo not given) | 0.71 | 38.81 | 38.91 | 38.91 | 39.15 | 330 | 8.7 | 10 | 10.71 | 5.23
COc1ccc(-c2cc(-c3c(O)ccc4c(-c5ccccc5)cc(=O)oc34)[nH]c(=O)c2C#N)cc1 | 1.18 | 38.81 | 38.71 | 38.64 | 38.91 | 330 | 5.78 | 0.94 | 2.84 | 9.47
C/C(=N\Nc1ccc([N+](=O)[O-])cc1[N+](=O)[O-])c1c(O)ccc2c(-c3ccccc3)cc(=O)oc12 | 4.47 | 38.42 | 38.05 | 38.34 | 38.93 | 370 | 0.67 | 16.7 | 18.35 | 13.41
O=c1cc(-c2ccccc2)c2ccc(O)c(C3=NN(c4ccccc4)C(c4ccc(Cl)cc4)C3)c2o1 (stereo not given) | 3.11 | 38.91 | 38.81 | 38.91 | 39.05 | 330 | 18.85 | 0.71 | 2.63 | 3.35
O=c1cc(-c2ccccc2)c2ccc(O)c(C3=NN(c4ccc([N+](=O)[O-])cc4[N+](=O)[O-])C(c4ccc(Cl)cc4)C3)c2o1 (stereo not given) | 1.4 | 38.81 | 38.91 | 38.91 | 38.94 | 390 | 11.27 | 0.93 | 1.4 | 0.93
COc1ccc(C2CC(c3c(O)ccc4c(-c5ccccc5)cc(=O)oc34)=NN2c2ccc([N+](=O)[O-])cc2[N+](=O)[O-])cc1 (stereo not given) | 3.58 | 38.81 | 38.91 | 38.91 | 38.91 | 370 | 11.61 | 3.58 | 4.78 | 3.58
CN(C)c1ccc(/C=C/C(=O)c2c(O)ccc3c(-c4ccccc4)cc(=O)oc23)cc1 | 9.41 | 38.31 | 38.21 | 38.51 | 38.86 | 390 | 17.4 | 37.41 | 36.94 | 22.82
CC(=O)c1c(O)ccc2c(-c3ccccc3)cc(=O)oc12 | 2.81 | 38.91 | 38.91 | 39 | 39.06 | 290 | 20.27 | 0 | 2.34 | 4.92
CN(C)c1ccc(C2CC(c3c(O)ccc4c(-c5ccccc5)cc(=O)oc34)=NN2)cc1 (stereo not given) | 2.11 | 38.91 | 38.9 | 38.91 | 38.91 | 310 | 8.7 | 1.41 | 1.64 | 2.35
COc1ccc(/C=C/C(=O)c2c(O)ccc3c(-c4ccccc4)cc(=O)oc23)cc1 | 3.52 | 38.91 | 38.91 | 38.95 | 39.11 | 290 | 12.35 | 9.41 | 9.41 | 9.41
COc1ccc(C2CC(c3c(O)ccc4c(-c5ccccc5)cc(=O)oc34)=NN2c2ccccc2)cc1 (stereo not given) | 6.63 | 38.51 | 38.14 | 38.44 | 38.87 | 370 | 18.85 | 41.23 | 39.09 | 18.24
O=c1cc(-c2ccccc2)c2ccc(O)c(C3=NNC(c4ccc(Cl)cc4)C3)c2o1 (stereo not given) | 1.18 | 38.9 | 38.84 | 38.9 | 38.91 | 310 | 17.4 | 0.71 | 1.65 | 1.65
C/C(=N\Nc1ccccc1)c1c(O)ccc2c(-c3ccccc3)cc(=O)oc12 | 1.17 | 39.11 | 38.81 | 38.91 | 38.91 | 290 | 12.35 | 3.75 | 2.58 | 2.81
O=C(/C=C/c1ccc(Cl)cc1)c1c(O)ccc2c(-c3ccccc3)cc(=O)oc12 | 0.94 | 39.05 | 38.91 | 38.84 | 38.91 | 330 | 20.27 | 0 | 0.94 | 1.65
CN(C)c1ccc(C2CC(c3c(O)ccc4c(-c5ccccc5)cc(=O)oc34)=NN2c2ccccc2)cc1 (stereo not given) | 6.82 | 38.4 | 38.01 | 38.43 | 38.88 | 330 | 5.78 | 39.76 | 40.23 | 20.47
CN(C)c1ccc(C2CC(c3c(O)ccc4c(-c5ccccc5)cc(=O)oc34)=NN2c2ccc([N+](=O)[O-])cc2[N+](=O)[O-])cc1 (stereo not given) | 7.29 | 38.54 | 38.1 | 38.42 | 38.91 | 330 | 17.06 | 36.94 | 35.29 | 19.05
C/C(=N\c1ccccc1N)c1c(O)ccc2c(-c3ccccc3)cc(=O)oc12 | 1.64 | 38.61 | 38.41 | 38.81 | 38.9 | 370 | 8.7 | 9.85 | 12.44 | 9.62
